In patent US9695155B2, “Herbicidal substituted pyrimidinyloxy benzene compounds” (E. I. DU PONT DE NEMOURS AND COMPANY, priority 2013, dated 2017):

Columns and labels:
Russian thistle = experiment: Test C preemergence; format: in vivo, Salsola kali; details: for Russian Thistle plant response rating: preemergence, scale 0 (no effect) to 100 (complete control); for Plant response rating, Russian Thistle: Preemergence, 31 g ai/ha, scale 0 to 100, 0 no effect, 100 complete control
Text: Seeds of plant species selected from blackgrass (Alopecurus myosuroides), Italian ryegrass (Lolium multiflorum), wheat, winter (winter wheat, Triticum aestivum), galium (catchweed bedstraw, Galium aparine), corn (Zea mays), large (Lg) crabgrass (Digitaria sanguinalis), giant foxtail (Setaria faberii), johnsongrass (Sorghum halepense), lambsquarters (Chenopodium album), morningglory (Ipomoea coccinea), yellow nutsedge (Cyperus esculentus), pigweed (Amaranthus retroflexus), ragweed (common ragweed, Ambrosia elatior), soybean (Glycine max), barnyardgrass (Echinochloa crus-galli), oilseed rape (Brassica napus), waterhemp (common waterhemp, Amaranthus rudis), kochia (Kochia scoparia), wild oat (Avena fatua), surinam grass (Brachiaria decumbens), foxtail, green (green foxtail, Setaria viridis), goosegrass (Eleusine indica), bromegrass, downy (downy bromegrass, Bromus tectorum), nightshade (eastern black nightshade, Solanum ptycanthum), cocklebur (common cocklebur, Xanthium strumarium), cupgrass, woolly (woolly cupgrass, Eriochloa villosa), bermudagrass (Cynodon dactylon), sunflower, (common oilseed sunflower, Helianthus annuus), Russian thistle (Salsola kali), and velvetleaf (Abutilon theophrasti) were planted into a blend of loam soil and sand and treated preemergence with test chemicals formulated in a non-phytotoxic solvent mixture which included a surfactant.
At the same time, plants selected from these crop and weed species and also barley, winter (winter barley, Hordeum vulgare), windgrass (Apera spica-venti), chickweed (common chickweed, Stellaria media), deadnettle (henbit deadnettle, Lamium amplexicaule), and canarygrass (littleseed canarygrass, Phalaris minor) were planted in pots containing Redi-Earth® planting medium (Scotts Company, 14111 Scottslawn Road, Marysville, Ohio 43041) comprising spaghnum peat moss, vermiculite, wetting agent and starter nutrients and treated with postemergence applications of test chemicals formulated in the same manner. Plants ranged in height from 2 to 18 cm (1- to 4-leaf stage) for postemergence treatments. Treated plants and controls were maintained in a greenhouse for 13 to 15 days, after which time all species were compared to controls and visually evaluated. Plant response ratings, summarized in Table C, are based on a scale of 0 to 100 where 0 is no effect and 100 is complete control. A dash (-) response means no test result.

barnyardgrass = experiment: Test G flood (paddy water application); format: in vivo, Echinochloa crus-galli; details: after 21 days, scale 0 to 100, 0 no effect, 100 complete control
Text: (§1) Three plastic pots (ca. 16-cm diameter) per rate were partially filled with sterilized Tama silt loam soil comprising a 35:50:15 ratio of sand, silt and clay and 2.6% organic matter. Separate plantings for each of the three pots were as follows. Seeds from the U.S. of monochoria (Monochoria vaginalis), sedge, umbrella (small-flower umbrella sedge, Cyperus difformis), hardstem bulrush (Scirpus juncoides), and redstem (purple redstem, Ammannia coccinea), were planted into one 16-cm pot for each rate. Seeds from the U.S. of rice flatsedge (Cyperus iria), bearded sprangletop (Leptochloa fascicularis), one stand of 9 or 10 water seeded rice seedlings (Oryza sativa cv. ‘Japonica—M202’), and two stands of 3 or 4 transplanted rice seedlings (Oryza sativa cv. ‘Japonica—M202’) were planted into one 16-cm pot for each rate. Seeds from the U.S. of barnyardgrass (Echinochloa crus-galli), and late watergrass (Echinochloa oryzicola) were planted into one 16-cm pot for each rate. Plantings were sequential so that crop and weed species were at the 2.0 to 2.5-leaf stage at time of treatment.
(§2) Potted plants were grown in a greenhouse with day/night temperature settings of 30/27° C., and supplemental balanced lighting was provided to maintain a 16-hour photoperiod. Test pots were maintained in the greenhouse until test completion.
(§3) At time of treatment, test pots were flooded to 3 cm above the soil surface, treated by application of test compounds directly to the paddy water, and then maintained at that water depth for the duration of the test. Effects of treatments on rice and weeds were visually evaluated by comparison to untreated controls after 21 days. Plant response ratings, summarized in Table G, are based on a scale of 0 to 100 where 0 is no effect and 100 is complete control. A dash (-) response means no test result.

hardstem bulrush = experiment: Test G flood (paddy water application); format: in vivo, Scirpus juncoides; details: after 21 days, scale 0 to 100, 0 no effect, 100 complete control
Text: as §1, §2, §3

redstem = experiment: Test G flood (paddy water application); format: in vivo, Ammannia coccinea; details: after 21 days, scale 0 to 100, 0 no effect, 100 complete control
Text: as §1, §2, §3

[1] = tested on: transplanted rice seedlings; experiment: Test G flood (paddy water application); format: in vivo, Oryza sativa cv. ‘Japonica—M202’; details: after 21 days, scale 0 to 100, 0 no effect, 100 complete control
Text: as §1, §2, §3

[2] = tested on: water seeded rice seedlings; experiment: Test G flood (paddy water application); format: in vivo, Oryza sativa cv. ‘Japonica—M202’; details: after 21 days, scale 0 to 100, 0 no effect, 100 complete control
Text: as §1, §2, §3

bearded sprangletop = experiment: Test G flood (paddy water application); format: in vivo, Leptochloa fascicularis; details: after 21 days, scale 0 to 100, 0 no effect, 100 complete control
Text: as §1, §2, §3

## FC(F)(F)c1cnn(-c2ccccc2Oc2ncc(Br)cn2)c1 [Compound 18, 5-bromo-2-[2-[4-(trifluoromethyl)-1H-pyrazol-1-yl]phenoxy]pyrimidine]
Russian thistle; 62 g ai/ha
  Russian Thistle plant response rating: 0
Russian thistle; 125 g ai/ha
  Russian Thistle plant response rating: 95
Russian thistle; 250 g ai/ha
  Russian Thistle plant response rating: 95
Russian thistle
  Plant response rating, Russian Thistle: 0
barnyardgrass; 32 g ai/ha
  Plant response rating, Barnyardgrass: 0
barnyardgrass; 64 g ai/ha
  Plant response rating, Barnyardgrass: 20
barnyardgrass; 125 g ai/ha
  Plant response rating, Barnyardgrass: 35
barnyardgrass; 250 g ai/ha
  Plant response rating, Barnyardgrass: 100
Hardstem bulrush; 32 g ai/ha
  Plant response rating, Bulrush, Hardstem: 0
Hardstem bulrush; 64 g ai/ha
  Plant response rating, Bulrush, Hardstem: 0
Hardstem bulrush; 125 g ai/ha
  Plant response rating, Bulrush, Hardstem: 0
Hardstem bulrush; 250 g ai/ha
  Plant response rating, Bulrush, Hardstem: 85
redstem; 32 g ai/ha
  Plant response rating, Redstem: 0
redstem; 64 g ai/ha
  Plant response rating, Redstem: 0
redstem; 125 g ai/ha
  Plant response rating, Redstem: 75
redstem; 250 g ai/ha
  Plant response rating, Redstem: 90
[1]; 125 g ai/ha
  Plant response rating, Rice, Transplanted: 15
[1]; 250 g ai/ha
  Plant response rating, Rice, Transplanted: 20
[2]; 64 g ai/ha
  Plant response rating, Rice, Water Seeded: 60
[2]; 125 g ai/ha
  Plant response rating, Rice, Water Seeded: 90
[2]; 250 g ai/ha
  Plant response rating, Rice, Water Seeded: 100
Bearded sprangletop; 32 g ai/ha
  Plant response rating, Sprangletop, Brdd.: 70
Bearded sprangletop; 64 g ai/ha
  Plant response rating, Sprangletop, Brdd.: 80
Bearded sprangletop; 125 g ai/ha
  Plant response rating, Sprangletop, Brdd.: 90
Bearded sprangletop; 250 g ai/ha
  Plant response rating, Sprangletop, Brdd.: 100

## FC(F)(F)c1cnn(-c2ccccc2Oc2ncc(Cl)cn2)c1 [Compound 16]
Russian thistle; 62 g ai/ha
  Russian Thistle plant response rating: 80
Russian thistle; 125 g ai/ha
  Russian Thistle plant response rating: 90
Russian thistle; 250 g ai/ha
  Russian Thistle plant response rating: 90
Russian thistle
  Plant response rating, Russian Thistle: 0
barnyardgrass; 32 g ai/ha
  Plant response rating, Barnyardgrass: 0
barnyardgrass; 64 g ai/ha
  Plant response rating, Barnyardgrass: 40
barnyardgrass; 125 g ai/ha
  Plant response rating, Barnyardgrass: 100
barnyardgrass; 250 g ai/ha
  Plant response rating, Barnyardgrass: 100
Hardstem bulrush; 32 g ai/ha
  Plant response rating, Bulrush, Hardstem: 40
Hardstem bulrush; 64 g ai/ha
  Plant response rating, Bulrush, Hardstem: 50
Hardstem bulrush; 125 g ai/ha
  Plant response rating, Bulrush, Hardstem: 65
Hardstem bulrush; 250 g ai/ha
  Plant response rating, Bulrush, Hardstem: 80
redstem; 32 g ai/ha
  Plant response rating, Redstem: 0
redstem; 64 g ai/ha
  Plant response rating, Redstem: 60
redstem; 125 g ai/ha
  Plant response rating, Redstem: 85
redstem; 250 g ai/ha
  Plant response rating, Redstem: 95
[1]; 32 g ai/ha
  Plant response rating, Rice, Transplanted: 0
[2]; 32 g ai/ha
  Plant response rating, Rice, Water Seeded: 50
[2]; 64 g ai/ha
  Plant response rating, Rice, Water Seeded: 90
[2]; 125 g ai/ha
  Plant response rating, Rice, Water Seeded: 100
[2]; 250 g ai/ha
  Plant response rating, Rice, Water Seeded: 100
Bearded sprangletop; 32 g ai/ha
  Plant response rating, Sprangletop, Brdd.: 65
Bearded sprangletop; 64 g ai/ha
  Plant response rating, Sprangletop, Brdd.: 100
Bearded sprangletop; 125 g ai/ha
  Plant response rating, Sprangletop, Brdd.: 100
Bearded sprangletop; 250 g ai/ha
  Plant response rating, Sprangletop, Brdd.: 100
